Data: patent publication US7745450B2, “Pyrazolo[4,3-d]pyrimidines, processes for their preparation and methods for therapy” (Institute of Experimental Botany, priority 2002, dated 2010)
Like-named read-outs stand apart in the source and are kept apart here.

Tests used:
IκB-α kinase = IκB-α kinase inhibition, in vitro kinase assay; assay type: biochemical
[1] = tested on: Cytokinin-dependent tobacco callus Nicotiana tabacum L. cv. Wisconsins 38; test: Tobacco callus bioassay for cytotoxicity (herbicidal activity); assay type: cell-based
Experimental: The novel compounds have also been tested in tobacco callus bioassay for cytotoxicity (herbicidal activity) and induction of cell death. The compounds to be tested were dissolved in dimethylsulfoxide (DMSO) and the solution brought up to 10^−3 M with distilled water. […] Cytokinin-dependent tobacco callus Nicotiana tabacum L. cv. Wisconsins 38 Murashige-Skoog medium, containing per 1 liter: 4 μmol nicotinic acid, 2.4 μmol pyridoxine hydrochloride, 1.2 μmol thiamine, 26.6 μmol glycine, 1.37 μmol glutamine, 1.8 μmol myo.inositol, 30 g of sucrose, 8 g of agar, […] α-naphthylacetic acid and 0.5 μmol 6-benzylaminopurine. Sub cultivation was carried out every three weeks. Fourteen days before the bioassay, the callus tissue was transferred to the media without 6-benzylaminopurine. Compounds were tested with two different concentrations of 6-benzylaminopurine (10^−5 M and 10^−6 M). Inhibitory growth activity was determined from the increase in fresh callus weight after four weeks of cultivation. Five replicates were prepared for each concentration tested and the entire test was repeated at least twice.

cdk1/cyclin B (CDC2) = cdk1/cyclin B (CDC2) (Homo sapiens, UniProt P06493); test: CDK inhibition assay, cdk1/cyclin B (CDC2) kinase, histone phosphorylation; assay type: biochemical
Chain of cdk1/cyclin B (CDC2) (P06493 whole entry, species assumed): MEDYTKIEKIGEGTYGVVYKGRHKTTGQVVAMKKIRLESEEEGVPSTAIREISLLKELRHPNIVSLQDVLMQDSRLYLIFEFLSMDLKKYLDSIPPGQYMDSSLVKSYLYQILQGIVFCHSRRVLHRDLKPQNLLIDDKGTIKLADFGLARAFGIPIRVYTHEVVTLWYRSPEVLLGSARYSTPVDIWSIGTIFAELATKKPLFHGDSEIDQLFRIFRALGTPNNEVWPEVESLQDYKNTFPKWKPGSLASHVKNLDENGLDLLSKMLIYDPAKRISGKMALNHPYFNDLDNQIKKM
Chain of cdk1/cyclin B (CDC2) (P14635 whole entry partner, species assumed): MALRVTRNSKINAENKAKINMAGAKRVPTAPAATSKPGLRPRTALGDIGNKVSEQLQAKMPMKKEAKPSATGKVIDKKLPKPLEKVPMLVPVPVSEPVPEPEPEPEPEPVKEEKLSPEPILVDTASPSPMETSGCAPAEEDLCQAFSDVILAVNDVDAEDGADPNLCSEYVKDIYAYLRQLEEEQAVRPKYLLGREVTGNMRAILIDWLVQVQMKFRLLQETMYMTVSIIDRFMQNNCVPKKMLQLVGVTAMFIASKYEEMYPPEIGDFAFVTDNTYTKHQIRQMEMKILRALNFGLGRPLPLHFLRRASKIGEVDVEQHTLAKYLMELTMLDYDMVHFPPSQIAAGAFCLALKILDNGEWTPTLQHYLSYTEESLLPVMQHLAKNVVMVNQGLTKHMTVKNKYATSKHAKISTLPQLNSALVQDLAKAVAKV
Experimental: Selected compounds were tested for cdk1/cyclin B and cdk2/cyclin E inhibitory activity to determine the basic relationships between their interaction energy of docked complex and the inhibitory activity. Cdk2/cyclin E complex was produced in SIP insect cells co-infected with appropriate baculoviral construct. The cells were harvested 70 hours post infection in lysis buffer (50 mM Tris 7.4 pH, 150 mM NaCl, 5 mM EDTA, 20 mM NaF, 1% Tween 20, protease inhibitors) for 30 min on ice and the soluble fraction was recovered by centrifugation at 14.000 g for 10 min. The protein extract was stored at −80° C. until use. The final point test system for kinase activity measurement was used to carry out experiments on the kinetics under linear conditions. The assay mixture contained 1 mg/ml histone (Sigma Type III-S), 15 μM ATP, 0.2 μCi [γ-^32P] ATP and tested compound in a final volume of 20 μl, all in reaction buffer: 50 mM Hepes 7.4 pH, 10 mM MgCl2, 5 mM EGTA, 10 mM 2-glycerolphosphate, 1 mM NaF, 1 mM DTT and protease inhibitors. […] The measurement of kinase inhibition employed the digital imaging analyzer BAS 1800. The kinase activity was expressed as a percentage of maximum activity and the IC50 value was determined by graphic analysis. The kinase activity is expressed as a percentage of maximum activity, the apparent inhibition constants are determined by graphic analysis from dose-response curves presented on FIG. 1.

[2] = Nicotiana tabacum, 672 h, read-out: 10^−5 M BAP IC50, 10^−5 M 6-benzylaminopurine, four weeks
[3] = Nicotiana tabacum, 672 h, read-out: 10^−6 M BAP IC50, 10^−6 M 6-benzylaminopurine, four weeks

| IC50 (IκB-α kinase) [µM] | IC50 (cdk1/cyclin B (CDC2)) [µM] | Structure (SMILES) | IC50 [1, 2] [µM] | IC50 [1, 3] [µM] | IC50 ([1]; read-out: 10^−5 M BAP IC50, 10^−5 M 6-benzylaminopurine, four weeks) [µM] |
| --- | --- | --- | --- | --- | --- |
| 0.2 | 0.1 | CC[C@H](CO)Nc1nc(NCc2ccccc2OC(C)=O)c2[nH]nc(C(C)C)c2n1 | 45 | 12.4 | – |
| 0.012 | 0.001 | CC(C)c1n[nH]c2c(Nc3cccc(Cl)c3)nc(NC3CCC(N)CC3)nc12 (stereo not drawn) | > 50 | 25 | – |
| – | 0.005 | CC(C)c1n[nH]c2c(NCc3ccccc3)nc(NC3CCC(N)CC3)nc12 (stereo not drawn) [Compound 268, 3-isopropyl-5-(4-aminocyclohexylamino)-7-benzylamino-pyrazolo[4,3-d]pyrimidine] | > 50 | 32 | – |
| 0.012 | 0.006 | CC(=O)Oc1ccccc1CNc1nc(N[C@@H](CO)C(C)C)nc2c(C(C)C)n[nH]c12 | 38 | 4.2 | – |
| 0.11 | 0.02 | CC[C@H](CO)Nc1nc(Nc2ccccc2)c2[nH]nc(C(C)C)c2n1 | 48 | 6.2 | – |
| 0.014 | 0.006 | CC[C@H](CO)Nc1nc(NCc2cccc(C)c2O)c2[nH]nc(C(C)C)c2n1 | > 50 | 12.3 | – |
| 0.002 | 0.001 | CC[C@H](CO)Nc1nc(Nc2ccc(Cl)c(C(=O)O)c2)c2[nH]nc(C(C)C)c2n1 | 28 | 1.5 | – |
| 0.06 | 0.02 | CC(=O)Oc1cccc(CNc2nc(N[C@@H](CO)C(C)C)nc3c(C(C)C)n[nH]c23)c1 | 36 | 8.5 | – |
| – | 0.004 | CC[C@H](CO)Nc1nc(Nc2cccc(Cl)c2)c2[nH]nc(C(C)C)c2n1 | 45 | – | > 50 |
| 0.04 | 0.02 | CC(C)c1n[nH]c2c(NCc3ccc(Cl)c(N)c3N)nc(N[C@@H](CO)C(C)C)nc12 | 15.6 | 0.4 | – |
| 0.009 | 0.004 | CC(C)c1n[nH]c2c(Nc3cccc(Cl)c3)nc(N[C@@H](CO)C(C)C)nc12 | > 50 | 11 | – |
| 0.012 | 0.004 | CC(C)c1n[nH]c2c(Nc3cccc(Cl)c3)nc(NC3CCCCC3N)nc12 (stereo not drawn) | > 50 | 28 | – |
| 0.002 | 0.001 | Cc1cccc(CNc2nc(N[C@@H](CO)C(C)C)nc3c(C(C)C)n[nH]c23)c1O | > 50 | 10.7 | – |
| 0.009 | 0.003 | CC[C@H](CO)Nc1nc(Nc2ccc(Cl)cc2)c2[nH]nc(C(C)C)c2n1 | 35 | 3.9 | – |
| 0.024 | 0.08 | CC[C@H](CO)Nc1nc(NCc2ccc(Cl)c(N)c2)c2[nH]nc(C(C)C)c2n1 | 25.7 | 1.3 | – |
| 0.002 | 0.0009 | CC(C)c1n[nH]c2c(NCc3c(N)cccc3Cl)nc(N[C@@H](CO)C(C)C)nc12 | 38 | 3.7 | – |
| 0.02 | 0.01 | Cc1n[nH]c2c(NCc3ccccc3)nc(N[C@@H](CO)C(C)C)nc12 | > 50 | 28 | – |
| 0.002 | 0.001 | CC(C)c1n[nH]c2c(Nc3ccc(Cl)c(N)c3)nc(N[C@@H](CO)C(C)C)nc12 | 25 | 1.8 | – |
| 0.003 | 0.002 | CC(C)c1n[nH]c2c(Nc3ccc(Br)cc3)nc(N[C@@H](CO)C(C)C)nc12 | > 50 | > 50 | – |

| IC50 (IκB-α kinase) [µM] | IC50 (cdk1/cyclin B (CDC2)) [µM] | Structure (SMILES) | IC50 [1, 2] [µM] | IC50 [1, 3] [µM] | IC50 ([1]; read-out: 10^−5 M BAP IC50, 10^−5 M 6-benzylaminopurine, four weeks) [µM] |
| --- | --- | --- | --- | --- | --- |
| 0.009 | 0.002 | CC[C@H](CO)Nc1nc(Nc2ccc(N)c(Cl)c2)c2[nH]nc(C(C)C)c2n1 | 48 | 8.7 | – |
| 0.02 | 0.004 | CC[C@H](CO)Nc1nc(Nc2cc(N)cc(Cl)c2)c2[nH]nc(C(C)C)c2n1 | 36 | 2.8 | – |
| 0.02 | 0.01 | CC(C)c1n[nH]c2c(NCc3ccccc3)nc(NC3CCCCC3N)nc12 (stereo not drawn) | > 50 | 36 | – |
| 0.004 | 0.002 | CC[C@H](CO)Nc1nc(Nc2ccc(C(=O)O)c(Cl)c2)c2[nH]nc(C(C)C)c2n1 | > 50 | 12.8 | – |
| 0.19 | 0.09 | CC(C)c1n[nH]c2c(Nc3cccc(Cl)c3)nc(N(CCO)CCO)nc12 | – | – | – |
| 0.05 | 0.02 | CC(=O)c1ccccc1CNc1nc(N[C@@H](CO)C(C)C)nc2c(C(C)C)n[nH]c12 | – | – | – |
| 11 | 5 | Cc1n[nH]c2c(NCc3ccc(O)c(O)c3)nc(NCCO)nc12 | – | – | – |
| 0.24 | 0.08 | Cc1n[nH]c2c(NCc3cccc(O)c3)nc(NCCO)nc12 | – | – | – |
| 0.028 | 0.008 | COc1ccc(CNc2nc(NCCO)nc3c(C)n[nH]c23)c(O)c1O | – | – | – |
| 0.04 | 0.01 | COc1cccc(CNc2nc(NCCO)nc3c(C)n[nH]c23)c1O | – | – | – |
| 0.9 | 0.7 | Cc1n[nH]c2c(N(C)Cc3ccc(O)c(O)c3)nc(NCCO)nc12 | – | – | – |
| 0.014 | 0.007 | Cc1n[nH]c2c(Nc3ccc(C(=O)O)c(Cl)c3)nc(NCCO)nc12 | – | – | – |
| 1.1 | 0.4 | CC(C)c1n[nH]c2c(NCc3ccccc3)nc(N(CCO)CCO)nc12 | – | – | – |
| 0.15 | 0.09 | CC(C)c1n[nH]c2c(N(C)CCc3ccc(O)c(O)c3)nc(N[C@@H](CO)C(C)C)nc12 | – | – | – |
| 0.0016 | 0.0007 | COc1cc(O)c(CNc2nc(N[C@@H](CO)C(C)C)nc3c(C(C)C)n[nH]c23)c(O)c1 | – | – | – |
| 0.0012 | 0.0004 | COc1ccc(CNc2nc(N[C@@H](CO)C(C)C)nc3c(C(C)C)n[nH]c23)c(O)c1O | – | – | – |
| 0.02 | 0.01 | Cc1n[nH]c2c(Nc3cc(N)cc(Cl)c3)nc(NCCO)nc12 | – | – | – |
| 0.012 | 0.005 | Cc1n[nH]c2c(NCc3c(O)cc(Cl)cc3O)nc(NCCO)nc12 | – | – | – |
| 0.009 | 0.004 | COc1cc(O)c(CNc2nc(NCCO)nc3c(C)n[nH]c23)c(O)c1 | – | – | – |

| IC50 (IκB-α kinase) [µM] | IC50 (cdk1/cyclin B (CDC2)) [µM] | Structure (SMILES) | IC50 [1, 2] [µM] | IC50 [1, 3] [µM] | IC50 ([1]; read-out: 10^−5 M BAP IC50, 10^−5 M 6-benzylaminopurine, four weeks) [µM] |
| --- | --- | --- | --- | --- | --- |
| 0.04 | 0.01 | CC[C@H](CO)Nc1nc(NCc2cccc(C(C)=O)c2)c2[nH]nc(C(C)C)c2n1 | – | – | – |
| 0.05 | 0.01 | CC(=O)c1ccccc1CNc1nc(NCCO)nc2c(C)n[nH]c12 | – | – | – |
| 0.015 | 0.005 | CC[C@H](CO)Nc1nc(NCc2ccccc2C(C)=O)c2[nH]nc(C(C)C)c2n1 | – | – | – |
| 0.001 | 0.0008 | CC(C)c1n[nH]c2c(NCc3cc(O)c(Cl)cc3O)nc(N[C@@H](CO)C(C)C)nc12 | – | – | – |
| 0.08 | 0.04 | Cc1n[nH]c2c(NCc3c(N)cccc3Cl)nc(NCCO)nc12 | – | – | – |
| 0.005 | 0.001 | CC(=O)c1cccc(CNc2nc(N[C@@H](CO)C(C)C)nc3c(C(C)C)n[nH]c23)c1 | – | – | – |
| 2.1 | 0.9 | Cc1n[nH]c2c(NCc3ccccc3)nc(N(CCO)CCO)nc12 | – | – | – |
| 0.11 | 0.03 | CC(C)c1n[nH]c2c(N(C)Cc3ccc(O)c(O)c3)nc(N[C@@H](CO)C(C)C)nc12 | – | – | – |
| 0.005 | 0.002 | CC[C@H](CO)Nc1nc(NCc2ccc(OC)c(O)c2O)c2[nH]nc(C(C)C)c2n1 | – | – | – |
| 0.001 | 0.0005 | CC(C)c1n[nH]c2c(NCc3ccccc3O)nc(N[C@@H](CO)C(C)C)nc12 | – | – | – |
| 0.21 | 0.09 | Cc1n[nH]c2c(Nc3ccccc3)nc(NCCO)nc12 [2-hydroxyethylamino; anilino; methyl] | – | – | – |
| 0.02 | 0.008 | Cc1n[nH]c2c(Nc3ccc(Br)cc3)nc(NCCO)nc12 | – | – | – |
| 0.03 | 0.01 | Cc1cccc(CNc2nc(NCCO)nc3c(C)n[nH]c23)c1O | – | – | – |
| 0.006 | 0.002 | CC[C@H](CO)Nc1nc(NCc2cc(O)c(OC)cc2O)c2[nH]nc(C(C)C)c2n1 | – | – | – |
| 0.7 | 0.6 | Cc1n[nH]c2c(NCc3ccc(Cl)c(N)c3N)nc(NCCO)nc12 | – | – | – |
| 0.03 | 0.01 | Cc1n[nH]c2c(NCc3cccc(Cl)c3O)nc(NCCO)nc12 | – | – | – |
| 0.01 | 0.005 | Cc1n[nH]c2c(Nc3ccc(Cl)c(C(=O)O)c3)nc(NCCO)nc12 | – | – | – |
| 0.011 | 0.003 | CC[C@H](CO)Nc1nc(NCc2ccc(Cl)c(O)c2O)c2[nH]nc(C(C)C)c2n1 | – | – | – |
